25 molecules from patent publication US8044052B2, “Biaryl ether urea compounds” (Pfizer Inc., priority 2006, dated 2011) can be followed below.

Counter-ions that a name gives are not always drawn.

This test concerns the target T1, Human FAAH (Homo sapiens, UniProt O00519).
T1 construct: made in house
T1 sequence (O00519 1-579): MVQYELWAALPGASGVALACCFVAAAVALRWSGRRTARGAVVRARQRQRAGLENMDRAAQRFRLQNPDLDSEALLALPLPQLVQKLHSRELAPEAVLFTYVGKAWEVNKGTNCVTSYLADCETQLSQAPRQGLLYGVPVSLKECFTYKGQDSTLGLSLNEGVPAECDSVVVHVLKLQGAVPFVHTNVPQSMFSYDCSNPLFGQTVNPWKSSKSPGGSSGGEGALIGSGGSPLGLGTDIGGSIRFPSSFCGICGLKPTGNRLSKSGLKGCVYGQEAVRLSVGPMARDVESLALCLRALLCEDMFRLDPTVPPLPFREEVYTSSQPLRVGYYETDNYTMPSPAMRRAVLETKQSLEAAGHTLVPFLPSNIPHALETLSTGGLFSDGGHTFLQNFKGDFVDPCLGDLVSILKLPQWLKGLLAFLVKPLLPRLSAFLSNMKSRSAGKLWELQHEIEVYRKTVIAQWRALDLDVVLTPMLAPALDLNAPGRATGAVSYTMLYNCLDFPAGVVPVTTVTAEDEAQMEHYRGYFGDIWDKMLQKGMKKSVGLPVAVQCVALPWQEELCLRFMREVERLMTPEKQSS
The experiment in a line: FAAH assay (glutamate dehydrogenase-coupled, oleamide substrate, absorbance at 340 nm). It is filed as biochemical. Particulars: irreversible inhibition, 1-4 nM FAAH, pH 7.4, 30° C., 90 min; for kinact/KI: read-out: hFAAH kinact/Ki. The procedure:
The FAAH assay was carried out in 384-well clear polystyrene plates in a total volume of 50 μl per well. All percents are by volume. To each well, was placed the reaction mixture (40 μl) containing 1-4 nM FAAH, 50 mM NaPi, pH 7.4, 3 mM α-ketoglutarate, 0.15 mM NADH, 7.5 U/ml glutamate dehydrogenase, 2 mM ADP, 1 mM EDTA, and 0.1% Triton X-100 (The concentration shown for each component is the final concentration in the assay). […] This was immediately followed by the addition of 5 μl oleamide (500 μM) dissolved in 75% EtOH/25% DMSO and the reaction mixture was mixed for 1.5 min. The final concentrations of DMSO and EtOH in the assay were each 7.5%.
Initial velocity data (V) were obtained from the slopes of the initial progressive curves. They were plotted as a function of substrate concentration and fit to the Michaelis-Menten equation (1) using Prism (GraphPad Software, Inc., San Diego, Calif.) software to obtain Km and Vmax values.
To obtain potencies of irreversible inhibitors, progressive curves consistent with first order inhibition kinetics (two-step irreversible inhibition mechanism) were fit to equation (2) by nonlinear least squares regressions to determine kobs values at each inhibitor concentration, where [P]t is the absorbance at time t, V0 is a constant related to the steady state rate of the uninhibited reaction, and kobs is the first order rate constant for enzyme inactivation. The inhibitor dissociation constant (Ki) and the first order rate
[formula] constant of enzyme inactivation at infinite inhibitor concentration (kinact) were then obtained by fitting the kobs vs. [I] curves to equation (3).

For `O=C(Nc1cccnn1)N1CCC(=Cc2cccc(Oc3ccc(C(F)(F)F)cn3)c2)CC1` [Example 5, N-pyridazin-3-yl-4-(3-{[5-(trifluoromethyl)pyridin-2-yl]oxy}benzylidene)piperidine-1-carboxamide], the kinact/KI is 24700 M⁻¹ s⁻¹.
Turning to `O=C(Nc1cccnc1)N1CCC(=C(c2ccccc2)c2cccc(Oc3ccc(C(F)(F)F)cn3)c2)CC1` [Example 68, 4-(phenyl(3-(5-(trifluoromethyl)pyridin-2-yloxy)phenyl)methylene)-N-(pyridin-3-yl)piperidine-1-carboxamide], the kinact/KI amounted to 206 M⁻¹ s⁻¹.
On the same count and under the same terms, under `Cc1ccc(Oc2cccc(C=C3CCN(C(=O)Nc4cccnn4)CC3)c2)nc1` [Example 45, 4-(3-(5-methylpyridin-2-yloxy)benzylidene)-N-(pyridazin-3-yl)piperidine-1-carboxamide] stands 12800 M⁻¹ s⁻¹; under `O=C(Nc1cccnn1)N1CCC(=Cc2cccc(Oc3ccc(N4CCCC4)cn3)c2)CC1` [Example 85, 4-(3-(5-(pyrrolidin-1-yl)pyridin-2-yloxy)benzylidene)-N-(pyridazin-3-yl)piperidine-1-carboxamide], 1540 M⁻¹ s⁻¹.
Still for that read-out and setting: under `O=C(Nc1cccnn1)N1CCC(=Cc2cccc(Oc3nccc(C(F)(F)F)n3)c2)CC1` [Example 113, N-pyridazin-3-yl-4-(3-{[4-(trifluoromethyl)pyrimidin-2-yl]oxy}benzylidene)piperidine-1-carboxamide] stands 584 M⁻¹ s⁻¹; under `COc1ccc(NC(=O)N2CCC(=Cc3cccc(Oc4ccc(C(F)(F)F)cn4)c3)CC2)cn1` [Example 8, N-(6-methoxypyridin-3-yl)-4-(3-{[5-(trifluoromethyl)pyridin-2-yl]oxy}benzylidene)piperidine-1-carboxamide], 10100 M⁻¹ s⁻¹.
For “N-(pyridin-3-yl)-4-(3-[{phenyl-2-yl]oxy}benzylidene)piperidine-1-carboxamide [Example 31]”, the “hFAAH kinact/Ki” value was 931 M⁻¹ s⁻¹.
For the molecule `Cc1cnc(NC(=O)N2CCC(=Cc3cccc(Oc4ccc(C(F)(F)F)cn4)c3)CC2)cn1` [Example 22, N-(5-methyl-pyrazin-2-yll)-4-(3-{[5-(trifluoromethyl)pyridin-2-yl]oxy}benzylidene)piperidine-1-carboxamide], the “hFAAH kinact/Ki” value is 12000 M⁻¹ s⁻¹.
`O=C(Nc1cnccn1)N1CCC(=Cc2cccc(Oc3ccc(C(F)(F)F)cn3)c2)CC1` [Example 4, N-pyrazin-2-yl-4-(3-{[5-(trifluoromethyl)pyridin-2-yl]oxy}benzylidene)piperidine-1-carboxamide]: the kinact/KI amounted to 25800 M⁻¹ s⁻¹.
In the case of `Cc1cc(C)nc(Oc2cccc(C=C3CCN(C(=O)Nc4cccnn4)CC3)c2)n1` [Example 120, 4-{3-[(4,6-dimethylpyrimidin-2-yl)oxy]benzylidene}-N-pyridazin-3-ylpiperidine-1-carboxamide], the kinact/KI was below 14.5 M⁻¹ s⁻¹.
With `O=C(Nc1cccnc1)N1CCC(=Cc2cc(Br)cc(Oc3ccc(C(F)(F)F)cn3)c2)CC1` [Example 62, 4-(3-bromo-5-(5-(trifluoromethyl)pyridin-2-yloxy)benzylidene)-N-(pyridin-3-yl)piperidine-1-carboxamide], the kinact/KI stood at 1370 M⁻¹ s⁻¹.
On the same count and under the same terms, with `O=C(Nc1cccnn1)N1CCC(=Cc2cccc(Oc3ccc(OCC(F)(F)F)cn3)c2)CC1` [Example 50, 4-(3-(5-(2,2,2-trifluoroethoxy)pyridin-2-yloxy)benzylidene)-N-(pyridazin-3-yl)piperidine-1-carboxamide] the figure was 5670 M⁻¹ s⁻¹.
The same measure, in the same setting: with `O=C(Nc1cccnn1)N1CCC(=Cc2cccc(Oc3nc(-c4ccccc4)ns3)c2)CC1` [Example 125, 4-{3-[(3-phenyl-1,2,4-thiadiazol-5-yl)oxy]benzylidene}-N-pyridazin-3-ylpiperidine-1-carboxamide] the figure was 140 M⁻¹ s⁻¹.
Same read-out and setting: under `O=C(Nc1cccnc1)N1CCC(=Cc2cccc(Oc3ccc(N4CCCC4)cn3)c2)CC1` [Example 86, 4-(3-(5-(pyrrolidin-1-yl)pyridin-2-yloxy)benzylidene)-N-(pyridin-3-yl)piperidine-1-carboxamide] stands 856 M⁻¹ s⁻¹.
As to `O=C(Nc1cccnn1)N1CCC(=Cc2cccc(Oc3ccc(N4CCC4)cn3)c2)CC1` [Example 87, 4-(3-(5-(azetidin-1-yl)pyridin-2-yloxy)benzylidene)-N-(pyridazin-3-yl)piperidine-1-carboxamide], the kinact/KI is 1840 M⁻¹ s⁻¹.
On to `O=C(Nc1cccnn1)N1CCC(=Cc2cccc(Oc3ccc(OCC(F)(F)F)cc3)c2)CC1` [Example 100, N-pyridazin-3-yl-4-{3-[4-(2,2,2-trifluoroethoxy)phenoxy]benzylidene}piperidine-1-carboxamide], for which the kinact/KI came to 2000 M⁻¹ s⁻¹.
Still for that read-out and setting: under `Cc1cccnc1Oc1cccc(C=C2CCN(C(=O)Nc3cccnc3)CC2)c1` [Example 42, 4-(3-(3-methylpyridin-2-yloxy)benzylidene)-N-(pyridin-3-yl)piperidine-1-carboxamide] stands 834 M⁻¹ s⁻¹; under `Cc1noc(NC(=O)N2CCC(=Cc3cccc(Oc4ccc(C(F)(F)F)cc4)c3)CC2)c1C` [Example 55, 4-(3-(4-(trifluoromethyl)phenoxy)benzylidene)-N-(3,4-dimethylisoxazol-5-yl)piperidine-1-carboxamide], 1610 M⁻¹ s⁻¹; under `O=C(Nc1cc(O)[nH]n1)N1CCC(=Cc2cccc(Oc3ccc(C(F)(F)F)cn3)c2)CC1` [Example 143, N-(5-hydroxy-1H-pyrazol-3-yl)-4-(3-{[5-(trifluoromethyl)pyridin-2-yl]oxy}benzylidene)piperidine-1-carboxamide], 412 M⁻¹ s⁻¹.
As to `O=C(Nc1cnoc1)N1CCC(=Cc2cccc(Oc3ccc(C(F)(F)F)cn3)c2)CC1` [Example 75, N-isoxazol-4-yl-4-(3-{[5-(trifluoromethyl)pyridin-2-yl]oxy}benzylidene)piperidine-1-carboxamide], the kinact/KI came out at 3620 M⁻¹ s⁻¹.
Same read-out and setting: under `O=C(Nc1ccc(Br)nc1)N1CCC(=Cc2cccc(Oc3ccc(C(F)(F)F)cn3)c2)CC1` [Example 28, 4-(3-(5-(trifluoromethyl)pyridin-2-yloxy)benzylidene)-N-(6-bromopyridin-3-yl)piperidine-1-carboxamide] stands 6190 M⁻¹ s⁻¹.
The same measure, in the same setting: with `O=C(Nc1cccnc1)N1CCC(=Cc2cccc(Oc3ccccc3)n2)CC1` [Example 92, 4-((6-phenoxypyridin-2-yl)methylene)-N-(pyridin-3-yl)piperidine-1-carboxamide] the figure was 894 M⁻¹ s⁻¹.
Regarding `CCn1ncnc1NC(=O)N1CCC(=Cc2cccc(Oc3ccc(C(F)(F)F)cn3)c2)CC1` [Example 81, N-(1-ethyl-1H-1,2,4-triazol-5-yl)-4-(3-{[5-(trifluoromethyl)pyridin-2-yl]oxy}benzylidene)piperidine-1-carboxamide trifluoroacetate], the kinact/KI was 1010 M⁻¹ s⁻¹.
Same read-out and setting: with `CC(C)Oc1ccc(Oc2cccc(C=C3CCN(C(=O)Nc4cccnc4)CC3)c2)nc1` [Example 51, 4-(3-(5-isopropoxypyridin-2-yloxy)benzylidene)-N-(pyridin-3-yl)piperidine-1-carboxamide] the figure was 4330 M⁻¹ s⁻¹; with `O=C(Nc1cccnn1)N1CCC(=Cc2cccc(Oc3cnc4ccccc4n3)c2)CC1` [Example 122, N-pyridazin-3-yl-4-[3-(quinoxalin-2-yloxy)benzylidene]piperidine-1-carboxamide], 909 M⁻¹ s⁻¹.
